According to PubChem BioAssay AID220 (DTP/NCI, 2004):
Values joined by “and” are separate entries in the source; they are usually repeats but may differ in a detail not shown here. Equal values may be shown once. Inconclusive results are not listed.

System: CD8F1 mice, subcutaneous mammary adenocarcinoma, T/C%
Experiment: NCI In Vivo Anticancer Drug Screen. Data for tumor model Mammary Adenocarcinoma CD8F1 (subcutaneous) in CD8F1
Settings: higher = larger tumour
Summary of the method: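 Tumor-bearing mice, transplantable model; readout survival or tumor size; value = treated (T) / vehicle control (C).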

[1] = endpoint: median tumor weight change, dose: 250.0 mg/kg/injection, schedule: Q01DX001 (ip), vehicle: saline with Tween-80
[2] = endpoint: median tumor weight change, dose: 1000.0 mg/kg/injection, schedule: Q01DX001 (ip), vehicle: saline with Tween-80
[3] = endpoint: median tumor weight change, dose: 2000.0 mg/kg/injection, schedule: Q01DX001 (ip), vehicle: saline with Tween-80
[4] = endpoint: median tumor weight (est.), dose: 200.0 mg/kg/injection, schedule: Q07DX005 (ip), vehicle: suspension in saline
[5] = endpoint: median tumor weight (est.), dose: 400.0 mg/kg/injection, schedule: Q07DX005 (ip), vehicle: suspension in saline
[6] = endpoint: median tumor weight (est.), dose: 12.5 mg/kg/injection, schedule: Q07DX005 (ip), vehicle: saline
[7] = endpoint: median tumor weight (est.), dose: 25.0 mg/kg/injection, schedule: Q07DX005 (ip), vehicle: saline
[8] = endpoint: median tumor weight (est.), dose: 50.0 mg/kg/injection, schedule: Q07DX005 (ip), vehicle: saline

Nc1nc2c(ncn2C2OC(CO)C(O)C2N)c(=O)[nH]1 (stereo unspecified)
T/C (endpoint: median tumor weight (est.), dose: 4.5 mg/kg/injection, schedule: Q07DX005 (ip), vehicle: saline with Tween-80): 79 % of control
T/C (endpoint: median tumor weight (est.), dose: 9.0 mg/kg/injection, schedule: Q07DX005 (ip), vehicle: saline with Tween-80): 99 % of control
T/C (endpoint: median tumor weight (est.), dose: 36.0 mg/kg/injection, schedule: Q07DX005 (ip), vehicle: saline with Tween-80): 172 % of control
T/C (endpoint: median tumor weight (est.), dose: 72.0 mg/kg/injection, schedule: Q07DX005 (ip), vehicle: saline with Tween-80): 106 % of control

C[n+]1ccc(Nc2ccc(NC(=O)c3ccc(Nc4cc[n+](C)c5ccc(N)cc45)cc3)cc2)cc1
T/C (endpoint: median tumor weight (est.), dose: 16.0 mg/kg/injection, schedule: Q07DX005 (ip), vehicle: Klucel (hydroxypropylcellulose) (HPC)): 51 % of control and 65 % of control
T/C (endpoint: median tumor weight (est.), dose: 32.0 mg/kg/injection, schedule: Q07DX005 (ip), vehicle: Klucel (hydroxypropylcellulose) (HPC)): 24 % of control and 25 % of control

CCc1nc(N)nc(N)c1-c1ccc(Cl)c([N+](=O)[O-])c1
T/C (endpoint: median tumor weight change, dose: 6.25 mg/kg/injection, schedule: Q01DX001 (ip), vehicle: saline with Tween-80): 47 % of control
T/C (endpoint: median tumor weight change, dose: 12.5 mg/kg/injection, schedule: Q01DX001 (ip), vehicle: saline with Tween-80): 39 % of control
T/C (endpoint: median tumor weight change, dose: 25.0 mg/kg/injection, schedule: Q01DX001 (ip), vehicle: saline with Tween-80): 20 % of control
T/C (endpoint: median tumor weight change, dose: 50.0 mg/kg/injection, schedule: Q01DX001 (ip), vehicle: saline with Tween-80): 38 % of control
T/C (endpoint: median tumor weight change, dose: 100.0 mg/kg/injection, schedule: Q01DX001 (ip), vehicle: saline with Tween-80): 47 % of control

COc1cccc2c1C(=O)c1c(O)c3c(c(O)c1C2=O)CC(O)(/C(C)=N/NC(=O)CCC(=O)N/N=C(\C)C1(O)Cc2c(O)c4c(c(O)c2C(OC2CC(N)C(O)C(C)O2)C1)C(=O)c1c(OC)cccc1C4=O)CC3OC1CC(N)C(O)C(C)O1 (stereo unspecified)
T/C (endpoint: median tumor weight (est.), dose: 1.5 mg/kg/injection, schedule: Q07DX005 (ip), vehicle: water): 167 % of control
T/C (endpoint: median tumor weight (est.), dose: 6.0 mg/kg/injection, schedule: Q07DX005 (ip), vehicle: water): 45 % of control
T/C (endpoint: median tumor weight (est.), dose: 12.0 mg/kg/injection, schedule: Q07DX005 (ip), vehicle: water): 17 % of control and 40 % of control
T/C (endpoint: median tumor weight (est.), dose: 24.0 mg/kg/injection, schedule: Q07DX005 (ip), vehicle: water): 7 % of control

c1ccc(SSc2ccccn2)nc1
T/C (endpoint: mean tumor weight, dose: 25.0 mg/kg/injection, schedule: Q07DX006 (ip), vehicle: saline): 123 % of control
T/C (endpoint: mean tumor weight, dose: 100.0 mg/kg/injection, schedule: Q07DX006 (ip), vehicle: saline): 159 % of control

O=C(O)C1Cc2nc[nH]c2CN1CO (stereo unspecified)
T/C (endpoint: median tumor weight change, dose: 125.0 mg/kg/injection, schedule: Q01DX001 (ip), vehicle: saline with Tween-80): 118 % of control
T/C [1]: 94 % of control
T/C (endpoint: median tumor weight change, dose: 500.0 mg/kg/injection, schedule: Q01DX001 (ip), vehicle: saline with Tween-80): 93 % of control
T/C [2]: 77 % of control
T/C [3]: 81 % of control

O=c1s[se]c2ccccc12
T/C (endpoint: median tumor weight (est.), dose: 3.12 mg/kg/injection, schedule: Q07DX005 (ip), vehicle: saline with Tween-80): 86 % of control
T/C (endpoint: median tumor weight (est.), dose: 6.25 mg/kg/injection, schedule: Q07DX005 (ip), vehicle: saline with Tween-80): 187 % of control
T/C (endpoint: median tumor weight (est.), dose: 12.5 mg/kg/injection, schedule: Q07DX005 (ip), vehicle: saline with Tween-80): 156 % of control
T/C (endpoint: median tumor weight (est.), dose: 25.0 mg/kg/injection, schedule: Q07DX005 (ip), vehicle: saline with Tween-80): 82 % of control
T/C (endpoint: median tumor weight (est.), dose: 50.0 mg/kg/injection, schedule: Q07DX005 (ip), vehicle: saline with Tween-80): 81 % of control

Cc1cc2nc3c(=O)[nH]c(=O)nc-3n(CC(O)C(O)C(O)C(O)CO)c2cc1C (stereo unspecified)
T/C [4]: 87 % of control and 100 % of control
T/C [5]: 58 % of control and 64 % of control

O=C1c2c(O)ccc(O)c2C(=O)c2c(NCCNCCO)ccc(NCCNCCO)c21
T/C (endpoint: median tumor weight (est.), dose: 0.25 mg/kg/injection, schedule: Q07DX005 (ip), vehicle: acid diluted with saline): 106 % of control
T/C (endpoint: median tumor weight (est.), dose: 0.5 mg/kg/injection, schedule: Q07DX005 (ip), vehicle: acid diluted with saline): 93 % of control
T/C (endpoint: median tumor weight (est.), dose: 0.5 mg/kg/injection, schedule: Q07DX005 (ip), vehicle: water): 59 % of control
T/C (endpoint: median tumor weight (est.), dose: 1.0 mg/kg/injection, schedule: Q07DX005 (ip), vehicle: acid diluted with saline): 82 % of control
T/C (endpoint: median tumor weight (est.), dose: 1.0 mg/kg/injection, schedule: Q07DX005 (ip), vehicle: water): 112 % of control
T/C (endpoint: median tumor weight (est.), dose: 2.0 mg/kg/injection, schedule: Q07DX005 (ip), vehicle: acid diluted with saline): 65 % of control

COC1C(O)CC(OC2CC(Oc3cc4cc5c(c(O)c4c(O)c3C)C(=O)[C@@H](OC3CC(OC4CC(OC6CC(C)(O)C(OC(C)=O)C(C)O6)C(O)C(C)O4)C(O)C(C)O3)[C@H]([C@H](OC)C(=O)[C@@H](O)[C@@H](C)O)C5)OC(C)C2OC(C)=O)OC1C (stereo partly specified)
T/C (endpoint: median tumor weight (est.), dose: 0.04 mg/kg/injection, schedule: Q07DX005 (ip), vehicle: saline): 46 % of control
T/C (endpoint: median tumor weight (est.), dose: 0.09 mg/kg/injection, schedule: Q07DX005 (ip), vehicle: saline): 93 % of control
T/C (endpoint: median tumor weight (est.), dose: 0.36 mg/kg/injection, schedule: Q07DX005 (ip), vehicle: saline): 70 % of control
T/C (endpoint: median tumor weight (est.), dose: 0.72 mg/kg/injection, schedule: Q07DX005 (ip), vehicle: saline): 76 % of control and 92 % of control
T/C (endpoint: median tumor weight change, dose: 0.25 mg/kg/injection, schedule: Q01DX001 (ip), vehicle: saline): 63 % of control
T/C (endpoint: median tumor weight change, dose: 0.5 mg/kg/injection, schedule: Q01DX001 (ip), vehicle: saline): 42 % of control
T/C (endpoint: median tumor weight change, dose: 1.0 mg/kg/injection, schedule: Q01DX001 (ip), vehicle: saline): 44 % of control

CCCCc1ccc(-n2c(C)c(COC(=O)NC)c(COC(=O)NC)c2C)cc1
T/C (endpoint: median tumor weight (est.), dose: 6.25 mg/kg/injection, schedule: Q07DX005 (ip), vehicle: Klucel (hydroxypropylcellulose) (HPC)): 118 % of control
T/C (endpoint: median tumor weight (est.), dose: 12.5 mg/kg/injection, schedule: Q07DX005 (ip), vehicle: Klucel (hydroxypropylcellulose) (HPC)): 63 % of control
T/C (endpoint: median tumor weight (est.), dose: 25.0 mg/kg/injection, schedule: Q07DX005 (ip), vehicle: Klucel (hydroxypropylcellulose) (HPC)): 111 % of control
T/C (endpoint: median tumor weight (est.), dose: 50.0 mg/kg/injection, schedule: Q07DX005 (ip), vehicle: Klucel (hydroxypropylcellulose) (HPC)): 56 % of control
T/C (endpoint: median tumor weight (est.), dose: 100.0 mg/kg/injection, schedule: Q07DX005 (ip), vehicle: Klucel (hydroxypropylcellulose) (HPC)): 40 % of control

CCC/C=C/C=C/C(=O)OC1/C(=C/C(=O)OC)CC2CC(C(C)O)OC(=O)CC(O)CC3CC(OC(C)=O)C(C)(C)C(O)(CC4C/C(=C/C(=O)OC)CC(/C=C/C(C)(C)C1(O)O2)O4)O3 (stereo unspecified)
T/C (endpoint: median tumor weight change, dose: 0.02 mg/kg/injection, schedule: Q01DX001 (ip), vehicle: saline + alcohol): 63 % of control
T/C (endpoint: median tumor weight change, dose: 0.04 mg/kg/injection, schedule: Q01DX001 (ip), vehicle: saline + alcohol): 115 % of control
T/C (endpoint: median tumor weight change, dose: 0.09 mg/kg/injection, schedule: Q01DX001 (ip), vehicle: saline + alcohol): 95 % of control
T/C (endpoint: median tumor weight change, dose: 0.19 mg/kg/injection, schedule: Q01DX001 (ip), vehicle: saline + alcohol): 22 % of control

NC(=S)c1ncn(C2OC(CO)C(O)C2O)c1N (stereo unspecified)
T/C [6]: 31 % of control
T/C [7]: 48 % of control
T/C (endpoint: median tumor weight (est.), dose: 25.0 mg/kg/injection, schedule: Q07DX005 (ip), vehicle: suspension in saline): 192 % of control
T/C [8]: 39 % of control
T/C (endpoint: median tumor weight (est.), dose: 50.0 mg/kg/injection, schedule: Q07DX005 (ip), vehicle: suspension in saline): 49 % of control
T/C (endpoint: median tumor weight (est.), dose: 100.0 mg/kg/injection, schedule: Q07DX005 (ip), vehicle: saline): 31 % of control
T/C (endpoint: median tumor weight (est.), dose: 100.0 mg/kg/injection, schedule: Q07DX005 (ip), vehicle: suspension in saline): 45 % of control
T/C (endpoint: median tumor weight (est.), dose: 200.0 mg/kg/injection, schedule: Q07DX005 (ip), vehicle: saline): 12 % of control
T/C [4]: 95 % of control
T/C (endpoint: median tumor weight (est.), dose: 400.0 mg/kg/injection, schedule: Q07DX005 (ip), vehicle: saline): 10 % of control
T/C [5]: 121 % of control

CN(C=O)C(C(=O)Nc1cccc2c(OC(=O)C(N(C)C=O)(N(C)C=O)N(C)C=O)c(N=Nc3ccc(S(=O)(=O)Nc4nccs4)cc3)cc(N=Nc3ccc(S(=O)(=O)Nc4nccs4)cc3)c12)(N(C)C=O)N(C)C=O (tested in a mixture with another compound)
T/C [1]: 100 % of control
T/C [2]: 119 % of control
T/C [3]: 63 % of control

[N-]=[N+]=C1N=CN=C1c1ncn[nH]1
T/C (endpoint: median tumor weight (est.), dose: 3.12 mg/kg/injection, schedule: Q07DX005 (ip), vehicle: carboxymethylcellulose (CMC)): 91 % of control
T/C (endpoint: median tumor weight (est.), dose: 6.25 mg/kg/injection, schedule: Q07DX005 (ip), vehicle: carboxymethylcellulose (CMC)): 95 % of control

C1OC1CN1CCN(CC2CO2)CC1 (stereo unspecified)
T/C (endpoint: median tumor weight (est.), dose: 3.12 mg/kg/injection, schedule: Q07DX005 (ip), vehicle: saline): 72 % of control and 80 % of control
T/C [6]: 24 % of control and 38 % of control
T/C [7]: 24 % of control and 28 % of control
T/C [8]: 1 % of control and 4 % of control
